The target in data set [1] is T1, DNA repair protein RAD52 homolog (Homo sapiens) (UniProt P43351).
T1 sequence (whole entry): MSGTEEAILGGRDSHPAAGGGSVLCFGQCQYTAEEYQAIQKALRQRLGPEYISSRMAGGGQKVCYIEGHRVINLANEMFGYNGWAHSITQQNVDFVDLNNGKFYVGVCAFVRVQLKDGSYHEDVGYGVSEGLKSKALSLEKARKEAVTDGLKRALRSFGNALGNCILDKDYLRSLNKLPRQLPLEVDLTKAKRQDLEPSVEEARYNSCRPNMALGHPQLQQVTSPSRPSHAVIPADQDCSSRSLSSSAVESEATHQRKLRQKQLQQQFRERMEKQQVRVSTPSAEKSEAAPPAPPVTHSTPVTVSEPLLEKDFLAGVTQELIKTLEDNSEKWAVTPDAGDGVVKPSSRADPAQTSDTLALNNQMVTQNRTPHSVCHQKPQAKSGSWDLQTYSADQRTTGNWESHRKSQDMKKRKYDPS
The data set is described as follows: Inhibition of RAD52 (unknown origin) expressed in BCR-ABL1-positive and BRCA1-deficient mouse 32Dcl3 cells expressing GFP-RAD52 assessed as cisplatin-induced RAD52 foci formation at 2.5 uM by AlexaFluor-594 staining based inverted fluorescence microscopy (reference value: 38.7 +/- 10%). Set-up: scale not given: the % may be the effect or the level left. Type of data set: cell-based.

In data set [2] the target is T2, DNA repair protein RAD51 homolog 1 (Mus musculus) (UniProt Q08297).
T2 sequence (whole entry): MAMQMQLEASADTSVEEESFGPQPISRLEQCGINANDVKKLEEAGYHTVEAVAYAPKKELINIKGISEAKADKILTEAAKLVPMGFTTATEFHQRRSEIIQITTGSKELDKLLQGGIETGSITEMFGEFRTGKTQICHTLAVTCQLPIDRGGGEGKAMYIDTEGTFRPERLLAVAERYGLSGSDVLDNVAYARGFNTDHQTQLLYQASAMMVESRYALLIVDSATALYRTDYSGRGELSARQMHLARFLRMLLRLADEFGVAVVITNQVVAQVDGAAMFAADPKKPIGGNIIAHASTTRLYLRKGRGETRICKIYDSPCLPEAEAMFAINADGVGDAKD
The experiment in a line: Inhibition of RAD51 in BCR-ABL1-positive and BRCA1-proficient mouse 32Dcl3 cells assessed as reduction in cisplatin-induced RAD51 foci formation by AlexaFluor-594 staining based inverted fluorescence microscopy.

For data set [3], the target named is T1, DNA repair protein RAD52 homolog (Homo sapiens). The data set is described as follows: Inhibition of RAD52 in human U2OS cells co-expressing SSA-GFP assessed as inhibition of repair of I-Scel-induced double stranded breaks by measuring green fluorescence at 30 uM by flow cytometry (reference value: 7.1%). Type of data set: cell-based. Set-up: scale not given: the % may be the effect or the level left.

Data set [4] has as its system U2OS. The data set is described as follows: Effect on homology dependent recombination in human U2OS cells co-expressing DR-GFP assessed as measuring green fluorescence at 15 uM flow cytometry (reference value: 7.13%). Type of data set: functional.
For a further data set, the species on record is Homo sapiens. The experiment in a line: Growth inhibition of BCR-ABL1-positive and BRCA1-deficient human CML cells at 2.5 to 10 uM treated with compound on days 0 and 2 and measured on day 4 by trypan blue staining based assay. Type of data set: functional.
For data set [5], the system named is U2OS. The data set is described as follows: Effect on homology dependent recombination in human U2OS cells co-expressing DR-GFP at 10 to 30 uM flow cytometry. Type of data set: functional, cell-based.
In data set [6] the target is T1, DNA repair protein RAD52 homolog (Homo sapiens). The data set is described as follows: Inhibition of RAD52 (unknown origin) expressed in BCR-ABL1-positive and BRCA1-deficient mouse 32Dcl3 cells expressing GFP-RAD52 assessed as cisplatin-induced RAD52 foci formation by measuring fraction of cell without foci at 2.5 uM by AlexaFluor-594 staining based inverted fluorescence microscopy (reference value: 48.4 +/- 6.2%). Set-up: scale not given: the % may be the effect or the level left.

The test system of data set [7] is U2OS. The experiment in a line: Effect on GFP+ positive cells in human U2OS cells co-expressing pMX-GFP up to 30 uM incubated for 48 hrs by flow cytometry relative to control. Type of data set: ADME, cell-based.

The structures appear in SMILES notation. Active and inactive are the calls of the source. The calls are words filed in the database; no cut-off is given here.

In the case of `CCN(CC)CCN=C(S)Nc1ccc2nc(N3CCN(C)CC3)cc(C)c2c1`, the Activity is 17% in data set [1]; 2.43% in data set [3]; 5.7% in the data set on U2OS [4]; 57.6% in data set [6]; “Non-Toxic” in the data set on U2OS [7]. In addition, in data set [2], the inhibition result is “inactive”. For the same compound, the “growth inhibition (GI)” value in the data set filed under Homo sapiens was “Active”. Besides, the result with U2OS [5] was inactive.

The record behind these values is ChEMBL document CHEMBL4417629, “Inhibitors of RAD52 Recombination Protein and Methods Using Same” (2018).
